Measured values from patent publication US5250543A, “Derivatives of 1,4-dihydropyridine, their preparation procedure and therapeutic compositions containing them” (priority 1991, dated 1993).
Counter-ions that a name gives are not always drawn. Blank lines part the entries; values can stand above or below the compound they belong to.

What was measured:
[1] = Solubility in water (noted in preparation); assay type: physicochemical; settings: isolated powder, in words
rat's isolated aorta = assay: Calcium blocking activity in vitro: KCl contraction of the rat's isolated aorta; assay type: cell-based
Method: The calcium blocking activity was determined in vitro by using the method of contracting the rat's isolated aorta with KCI (see Bernard Swynghedauw--Animal Experiments in Cardiology, Collection INSERM Medicine Sciences, Flammarion).
(§1) For this purpose, the IC50 values were at first determined at the receptors (on the DHP membranous site with ^3 H-radiolabelled ligand isradipine and with these doses the percentage of inhibition in the contraction of the isolated aorta was determined.

DHP membranous site = assay: Receptor binding at DHP membranous site with 3H-radiolabelled ligand isradipine; settings: same value used as dose in aorta test, read-out: IC50 at the receptors
Method: as §1

[2] = tested on: histamine hyperpermeability in Sprague-Dawley rats; assay: Effect on histamine hyperpermeability (Evan's Blue intradermal extravasation); assay type: in vivo, rat (Sprague-Dawley)
Method: The effect of CRL 41695 administered intraperitoneally on hystamine hyperpermeability was tested on Sprague-Dawley rats.
The parameter tested was the effect on Evan's Blue intradermal extravasation induced by histamine injection.
24 hours after shaving and epilation of the rat's flanks, CRL 41695 was injected intraperitoneally at dose levels of 10 mg/kg (dispersed in 0.9% NaCl +5% carboxymethylcellulose) and 10 minutes later 0.25 ml/100 g of Evan's Blue at 2% injected intravenously.
0.1 ml of 0.9% NaCl was then injected intradermally in the left flank and 0.01 ml of histamine ([…]) in the right flank.
The rats were sacrificed after 40 minutes and the injection sites removed. The Evan's Blue was extracted from the skin with 65% formamide and the solvent was removed by filtration. The optical density was determined as 620 nm.

[3] = tested on: conscious Wistar rats suffering from genetic hypertension; assay: Effects on mean arterial pressure and heartbeat frequency in conscious rats suffering from genetic hypertension; assay type: in vivo, rat (Wistar); settings: oral, 16 mg/kg; for Heartbeat frequency / tachycardiac effect (in words): early effect (nicardipine after five minutes)
Method: The effects were tested using conscious Wistar rats suffering from genetic hypertension (6 rats per compound). The compounds were administered orally as a 16 mg/kg (under 5.3 ml/kg) dose in suspension.

[4] = Acute toxicity (intraperitoneal) in rats; settings: rat, in vivo, ip, Sprague-Dawley rats, Example 1 given as 20 mg/ml aqueous suspension, nicardipine under the same conditions
Method: The acute toxicity of the compound of example 1 was determined on rats injected intraperitoneally (Sprague-Dawley rats) and the product was administered as a 20 mg/ml aqueous suspension.

Solubility in water [1]: water-insoluble | IC50 (DHP membranous site): 4 nM
SMILES: COC(=O)C1=C(C)NC(C)=C(C(=O)O[C@H]2CCCN(CCCC(=O)c3c(OC)cc(OC)cc3OC)C2)[C@H]1c1cccc([N+](=O)[O-])c1 (single isomer, unassigned) [Example 8, hydrochloride]
inhibition at 0.004 µM (rat's isolated aorta; dose 4 × 10^-9 M (= receptor IC50)): 40%

Solubility in water [1]: water-insoluble | IC50 (DHP membranous site): 0.6 nM
SMILES: COC(=O)C1=C(C)NC(C)=C(C(=O)O[C@@H]2CCCN(CCCC(=O)c3c(OC)cc(OC)cc3OC)C2)[C@H]1c1cccc([N+](=O)[O-])c1 (single isomer, unassigned) [Example 9, hydrochloride]
inhibition at 0.0006 µM (rat's isolated aorta; dose 6 × 10^-10 M (= receptor IC50)): 60%

SMILES: COC(=O)C1=C(C)NC(C)=C(C(=O)OC2CCCN(CCCC(=O)c3c(OC)cc(OC)cc3OC)C2)C1c1cccc([N+](=O)[O-])c1 (centres unmarked) [Example 1, 2,6-dimethyl-4-(3-nitro-phenyl)-5-methoxycarbonyl-1,4-dihydropyridine-3-carboxylic acid N-[3-(2,4,6-trimethoxybenzoyl)propyl]piperidine-3'-yl ester, hydrochloride]
Antihyperpermeable effect (intradermal concentration of Evan's Blue induced by histamine, in words) ([2]; 10 mg/kg intraperitoneal): decrease greatly the intradermal concentration of Evan's Blue | Decrease in the intradermal concentration of Evan's Blue ([2]; ip, 10 mg/kg): 50% | Solubility in water ([1]; hydrochloride): water-insoluble | Duration of significant hypotension [3]: at least 7 hours | Heartbeat frequency, variation after 5 mins [3]: +13% | Arterial pressure, variation after 3 hrs [3]: -50% | Heartbeat frequency, variation after 5 hrs [3]: 0% | Arterial pressure, variation after 7 hrs [3]: -42% | Hypotension (in words) ([3]; during at least 7 hours): significantly raised | Heartbeat frequency / tachycardiac effect (in words) [3]: only slightly increased | Secondary tachycardiac effect (in words) [3]: not found | LD50 [4]: 249 ± 50 mg/kg

SMILES: COC(=O)C1=C(C)NC(C)=C(C(=O)OC2CCCN(CCCC(=O)c3c(OC)cc(OC)cc3OC)C2)C1c1cccc([N+](=O)[O-])c1 (centres unmarked) [Example 2, 2,6-dimethyl-4-(-3-nitrophenyl)-5-methoxycarbonyl-1,4-dihydropyridine-3-carboxylic acid N-[3-(2,4,6,trimethoxybenzoyl)propyl]piperidine-3-yl ester]
Solubility in water [1]: soluble in water in the presence of acetic acid | inhibition at 0.01 µM (rat's isolated aorta; dose 10^-8 M (= receptor IC50)): 60% | IC50 (DHP membranous site): 10 nM

Solubility in water [1]: water-insoluble
SMILES: COC(=O)C1=C(C)NC(C)=C(C(=O)OCC2CCCN2CCCC(=O)c2c(OC)cc(OC)cc2OC)C1c1cccc([N+](=O)[O-])c1 (centres unmarked) [Example 3, 2,6-dimethyl-4-(3-nitrophenyl-5-methoxycarbonyl-1,4-dihydropyridine-3-carboxylic acid N-[3-(2,4,6-trimethoxybenzoyl)propyl]pyrrolidylmethyl ester, hydrochloride]

Solubility in water [1]: water-insoluble | IC50 (DHP membranous site): 3 nM
SMILES: COC(=O)C1=C(C)NC(C)=C(C(=O)O[C@H]2CCCN(CCCC(=O)c3c(OC)cc(OC)cc3OC)C2)[C@H]1c1cccc([N+](=O)[O-])c1 [Example 4, (+)(4S, 3'S) 2,6-dimethyl-4-(3-nitrophenyl)-5-methoxycarbonyl-1,4-dihydropyridine-3-carboxylic acid N-[3-(2,4,6-trimethoxybenzoyl)propyl]piperidine-3'-yl ester]
inhibition at 0.003 µM (rat's isolated aorta; dose 3 × 10^-9 M (= receptor IC50)): 70%

Solubility in water [1]: water-insoluble
SMILES: COC(=O)C1=C(C)NC(C)=C(C(=O)O[C@@H]2CCCN(CCCC(=O)c3c(OC)cc(OC)cc3OC)C2)[C@@H]1c1cccc([N+](=O)[O-])c1 [Example 5, (-)(4R, 3'R) 2,6-dimethyl-4-(3-nitrophenyl)-5-methoxycarbonyl-1,4-dihydropyridine-3-carboxylic acid N-[3-(2,4,6-trimethoxybenzoyl)propyl]piperidine-3-yl ester]

Solubility in water [1]: water-insoluble
SMILES: COC(=O)C1=C(C)NC(C)=C(C(=O)O[C@H]2CCCN(CCCC(=O)c3c(OC)cc(OC)cc3OC)C2)[C@@H]1c1cccc([N+](=O)[O-])c1 [Example 6, (+)(4R, 3'S) 2,6-dimethyl-4-(3-nitrophenyl)-5-methoxycarbonyl-1,4-dihydropyridine-3-carboxylic acid N-[3-(2,4,6-trimethoxybenzoyl)propyl]piperidine-3'-yl ester]

Solubility in water [1]: water-insoluble | IC50 (DHP membranous site): 2 nM
SMILES: COC(=O)C1=C(C)NC(C)=C(C(=O)O[C@@H]2CCCN(CCCC(=O)c3c(OC)cc(OC)cc3OC)C2)[C@H]1c1cccc([N+](=O)[O-])c1 [Example 7, (-)(4S, 3'R) 2,6-dimethyl-4-(3-nitrophenyl)-5-methoxycarbonyl-1,4-dihydropyridine-3-carboxylic acid N-[3-(2,4,6-trimethoxybenzoyl)propyl]piperidine-3'-yl ester]
inhibition at 0.002 µM (rat's isolated aorta; dose 2 × 10^-9 M (= receptor IC50)): 80%

SMILES: COC(=O)C1=C(C)NC(C)=C(C(=O)OC2CCCN(CCCC(=O)c3c(OC)cc(OC)cc3OC)C2)C1c1cccc([N+](=O)[O-])c1 (centres unmarked) [Example 10, 2,6-dimethyl-4-(3-nitrophenyl)-5-methoxycarbonyl-1,4-dihydropyridine-3-carboxylic acid N-[3-(2,4,6-trimethoxybenzoyl)propyl]piperidine-3'-yl, lactate]
Solubility in water [1]: soluble in cold water but is precipitated on warming

SMILES: COC(=O)C1=C(C)NC(C)=C(C(=O)OC2CCCN(CCCC(=O)c3c(OC)cc(OC)cc3OC)C2)C1c1cccc([N+](=O)[O-])c1 (centres unmarked) [Example 11, 2,6-dimethyl-4-(3-nitrophenyl)-5-methoxycarbonyl-1,4-dihydropyridine-3-carboxylic acid N-[3-(2,4,6-trimethoxybenzoyl)propyl]piperidine-3'-yl ester, glutamate]
Solubility in water [1]: water-insoluble

SMILES: COC(=O)C1=C(C)NC(C)=C(C(=O)OC2CCCN(CCCC(=O)c3c(OC)cc(OC)cc3OC)C2)C1c1cccc([N+](=O)[O-])c1 (centres unmarked) [Example 12, 2,6-dimethyl-4-(3-nitrophenyl)-5-methoxycarbonyl-1,4-dihydropyridine-3-carboxylic acid N-[3-(2,4,6-trimethoxybenzoyl)propyl]piperidine-3'-yl ester, aspartate]
Solubility in water [1]: water-insoluble

SMILES: COC(=O)C1=C(C)NC(C)=C(C(=O)OCCN(C)Cc2ccccc2)C1c1cccc([N+](=O)[O-])c1 (centres unmarked) [nicardipine, reference compound]
Time of maximum secondary tachycardiac effect [3]: 5 h | Heartbeat frequency, variation after 5 mins [3]: +32% | Arterial pressure, variation after 3 hrs [3]: -39% | Heartbeat frequency, variation after 5 hrs [3]: +23% | Arterial pressure, variation after 7 hrs [3]: -27% | Heartbeat frequency / tachycardiac effect (in words) [3]: clear tachycardiac effect after five minutes | Secondary tachycardiac effect (in words) [3]: secondary tachycardiae effect was also observed | LD50 [4]: 233 ± 65 mg/kg
